From patent US11759455B2, “Substituted 1H-imidazo[4,5-b]pyridin-2(3H)-ones and their use as GLUN2B receptor modulators” (JANSSEN PHARMACEUTICA NV, priority 2016, dated 2023)

molecular target: T1, human GluN1/GluN2B NMDA receptors (Homo sapiens, UniProt Q13224); assay: Cell-based calcium flux (FLIPR) assay on cloned human NR1/NR2B ion channels expressed in mammalian cells (standard and HTS buffer variants); details: standard assay buffer (0.5 mM MgCl2 in dye loading buffer; 137 mM NaCl, 4 mM KCl in assay buffer), human GluN1/GluN2B, read-out: NR2B IC50 (μM) standard assay;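 also: stable Tet-On inducible cell line, Ca2+ influx triggered by glutamate at about EC40 plus 10 µM glycine, fluorescent dye read-out over 5 min, normalized to control wells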
T1 construct: expressed in transfected cells
T1 sequence (Q13224 27-1484, other chains not shown): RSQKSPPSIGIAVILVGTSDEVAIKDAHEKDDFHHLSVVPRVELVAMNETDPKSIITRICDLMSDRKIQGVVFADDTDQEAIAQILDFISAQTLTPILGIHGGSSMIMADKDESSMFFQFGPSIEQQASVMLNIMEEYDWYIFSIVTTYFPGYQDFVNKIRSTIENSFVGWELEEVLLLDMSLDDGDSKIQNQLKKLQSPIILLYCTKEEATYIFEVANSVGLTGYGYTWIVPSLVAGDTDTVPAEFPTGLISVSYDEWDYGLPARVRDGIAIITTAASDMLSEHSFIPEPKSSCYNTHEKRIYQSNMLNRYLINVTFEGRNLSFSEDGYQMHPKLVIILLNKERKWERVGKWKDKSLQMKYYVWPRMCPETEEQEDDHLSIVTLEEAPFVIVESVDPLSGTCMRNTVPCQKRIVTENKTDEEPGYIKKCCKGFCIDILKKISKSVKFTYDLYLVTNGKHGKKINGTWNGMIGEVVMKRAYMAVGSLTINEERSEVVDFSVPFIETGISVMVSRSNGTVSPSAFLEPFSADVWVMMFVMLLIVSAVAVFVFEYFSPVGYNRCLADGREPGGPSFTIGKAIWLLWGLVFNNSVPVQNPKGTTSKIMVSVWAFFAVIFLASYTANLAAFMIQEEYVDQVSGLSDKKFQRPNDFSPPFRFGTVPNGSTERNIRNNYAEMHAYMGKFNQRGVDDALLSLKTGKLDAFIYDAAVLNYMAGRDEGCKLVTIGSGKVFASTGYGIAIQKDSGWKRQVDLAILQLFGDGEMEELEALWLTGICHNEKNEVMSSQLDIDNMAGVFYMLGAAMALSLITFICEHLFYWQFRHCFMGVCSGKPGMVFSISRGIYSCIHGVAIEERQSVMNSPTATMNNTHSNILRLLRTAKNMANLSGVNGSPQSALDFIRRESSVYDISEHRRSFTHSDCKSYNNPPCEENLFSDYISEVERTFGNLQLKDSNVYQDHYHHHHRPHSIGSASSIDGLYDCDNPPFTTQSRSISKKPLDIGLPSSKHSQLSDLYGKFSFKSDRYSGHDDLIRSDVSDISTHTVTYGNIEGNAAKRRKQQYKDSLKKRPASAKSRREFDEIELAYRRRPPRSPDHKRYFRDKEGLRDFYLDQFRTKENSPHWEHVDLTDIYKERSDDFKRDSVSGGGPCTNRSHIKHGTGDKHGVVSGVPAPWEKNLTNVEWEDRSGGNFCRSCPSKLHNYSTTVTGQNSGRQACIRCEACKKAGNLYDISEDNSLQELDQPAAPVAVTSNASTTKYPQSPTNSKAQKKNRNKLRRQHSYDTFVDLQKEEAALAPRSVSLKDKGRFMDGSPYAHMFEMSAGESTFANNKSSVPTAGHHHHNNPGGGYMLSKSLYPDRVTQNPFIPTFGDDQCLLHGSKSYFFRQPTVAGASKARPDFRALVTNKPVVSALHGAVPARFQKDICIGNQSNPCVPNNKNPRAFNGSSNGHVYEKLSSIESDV

Structure (SMILES)	IC50
Cc1c(F)ccc(-c2cnc3c(c2)n(Cc2cn(C)nn2)c(=O)n3C)c1F [Example 574, 6-(2,4-Difluoro-3-methyl-phenyl)-3-methyl-1-[(1-methyltriazol-4-yl)methyl]imidazo[4,5-b]pyridin-2-one]	0.046 µM
Cc1nnc(Cn2c(=O)n(C)c3ncc(-c4ccc(F)c(C)c4F)cc32)o1 [Example 575, 6-(2,4-Difluoro-3-methyl-phenyl)-3-methyl-1-[(5-methyl-1,3,4-oxadiazol-2-yl)methyl]imidazo[4,5-b]pyridin-2-one]	0.028 µM
Cc1c(F)ccc(-c2cnc3c(c2)n(Cc2csnn2)c(=O)n3C)c1F [Example 576, 6-(2,4-Difluoro-3-methyl-phenyl)-3-methyl-1-(thiadiazol-4-ylmethyl)imidazo[4,5-b]pyridin-2-one]	0.05 µM
CN(CCF)C(=O)Cn1c(=O)n(C)c2ncc(-c3ccc(C(F)(F)F)s3)cc21 [Example 577, N-(2-Fluoroethyl)-N-methyl-2-[3-methyl-2-oxo-6-[5-(trifluoromethyl)-2-thienyl]imidazo[4,5-b]pyridin-1-yl]acetamide]	0.064 µM
O=C(Cn1c(=O)[nH]c2ncc(-c3ccc(C(F)(F)F)s3)cc21)N1CC(F)C1 [Example 578, 1-[2-(3-Fluoroazetidin-1-yl)-2-oxo-ethyl]-6-[5-(trifluoromethyl)-2-thienyl]-3H-imidazo[4,5-b]pyridin-2-one]	0.014 µM
Cc1c(F)ccc(-c2cnc3[nH]c(=O)n(CC(=O)N4CCC4)c3c2)c1F [Example 579, 1-[2-(Azetidin-1-yl)-2-oxo-ethyl]-6-(2,4-difluoro-3-methyl-phenyl)-3H-imidazo[4,5-b]pyridin-2-one]	0.015 µM
Cc1cccc(-c2cnc3[nH]c(=O)n(CC(=O)N4CC(F)(F)C4)c3c2)c1 [Example 580, 1-[2-(3,3-Difluoroazetidin-1-yl)-2-oxo-ethyl]-6-(m-tolyl)-3H-imidazo[4,5-b]pyridin-2-one]	0.026 µM
Cc1cccc(-c2cnc3c(c2)n(CC(=O)N2CC(F)(F)C2)c(=O)n3C)c1 [Example 581, 1-[2-(3,3-Difluoroazetidin-1-yl)-2-oxo-ethyl]-3-methyl-6-(m-tolyl)imidazo[4,5-b]pyridin-2-one]	0.032 µM
Cc1cccc(-c2cnc3c(c2)n(CC(=O)N(C)C)c(=O)n3C)c1 [Example 583, N,N-Dimethyl-2-[3-methyl-6-(m-tolyl)-2-oxo-imidazo[4,5-b]pyridin-1-yl]acetamide]	0.051 µM
Cn1c(=O)n(CC(=O)N2CCC2)c2cc(-c3ccc(F)c(C(F)F)c3)cnc21 [Example 584, 1-[2-(Azetidin-1-yl)-2-oxo-ethyl]-6-[3-(difluoromethyl)-4-fluoro-phenyl]-3-methyl-imidazo[4,5-b]pyridin-2-one]	0.024 µM
Cn1c(=O)n(CC(=O)N2CC(F)C2)c2cc(-c3ccc(F)c(C(F)F)c3)cnc21 [Example 585, 6-[3-(Difluoromethyl)-4-fluoro-phenyl]-1-[2-(3-fluoroazetidin-1-yl)-2-oxo-ethyl]-3-methyl-imidazo[4,5-b]pyridin-2-one]	0.018 µM
Cn1c(=O)n(CC(=O)N2CC(F)(F)C2)c2cc(-c3ccc(F)c(C(F)F)c3)cnc21 [Example 586, 1-[2-(3,3-Difluoroazetidin-1-yl)-2-oxo-ethyl]-6-[3-(difluoromethyl)-4-fluoro-phenyl]-3-methyl-imidazo[4,5-b]pyridin-2-one]	0.051 µM
CN(C)C(=O)Cn1c(=O)n(C)c2ncc(-c3ccc(F)c(OC(F)F)c3)cc21 [Example 587, 2-[6-[3-(Difluoromethoxy)-4-fluoro-phenyl]-3-methyl-2-oxo-imidazo[4,5-b]pyridin-1-yl]-N,N-dimethyl-acetamide]	0.035 µM
Cn1c(=O)n(CC(=O)N2CCC2)c2cc(-c3ccc(F)c(OC(F)F)c3)cnc21 [Example 588, 1-[2-(Azetidin-1-yl)-2-oxo-ethyl]-6-[3-(difluoromethoxy)-4-fluoro-phenyl]-3-methyl-imidazo[4,5-b]pyridin-2-one]	0.023 µM
Cn1c(=O)n(CC(=O)N2CC(F)C2)c2cc(-c3ccc(F)c(OC(F)F)c3)cnc21 [Example 589, 6-[3-(Difluoromethoxy)-4-fluoro-phenyl]-1-[2-(3-fluoroazetidin-1-yl)-2-oxo-ethyl]-3-methyl-imidazo[4,5-b]pyridin-2-one]	0.028 µM
Cn1c(=O)n(CC(=O)N2CC(F)(F)C2)c2cc(-c3ccc(F)c(OC(F)F)c3)cnc21 [Example 590, 1-[2-(3,3-Difluoroazetidin-1-yl)-2-oxo-ethyl]-6-[3-(difluoromethoxy)-4-fluoro-phenyl]-3-methyl-imidazo[4,5-b]pyridin-2-one]	0.025 µM
CN(C)C(=O)Cn1c(=O)n(C)c2ncc(-c3ccc(Cl)c(OC(F)F)c3)cc21 [Example 591, 2-[6-[4-Chloro-3-(difluoromethoxy)phenyl]-3-methyl-2-oxo-imidazo[4,5-b]pyridin-1-yl]-N,N-dimethyl-acetamide]	0.034 µM

Structure (SMILES)	IC50
Cn1c(=O)n(CC(=O)N2CCC2)c2cc(-c3ccc(Cl)c(OC(F)F)c3)cnc21 [Example 592, 1-[2-(Azetidin-1-yl)-2-oxo-ethyl]-6-[4-chloro-3-(difluoromethoxy)phenyl]-3-methyl-imidazo[4,5-b]pyridin-2-one]	0.071 µM
Cn1c(=O)n(CC(=O)N2CC(F)C2)c2cc(-c3ccc(Cl)c(OC(F)F)c3)cnc21 [Example 593, 6-[4-Chloro-3-(difluoromethoxy)phenyl]-1-[2-(3-fluoroazetidin-1-yl)-2-oxo-ethyl]-3-methyl-imidazo[4,5-b]pyridin-2-one]	0.053 µM
Cn1c(=O)n(CC(=O)N2CC(F)(F)C2)c2cc(-c3ccc(Cl)c(OC(F)F)c3)cnc21 [Example 594, 6-[4-Chloro-3-(difluoromethoxy)phenyl]-1-[2-(3,3-difluoroazetidin-1-yl)-2-oxo-ethyl]-3-methyl-imidazo[4,5-b]pyridin-2-one]	0.082 µM
Cc1c(F)ccc(-c2cnc3c(c2)n(CC(=O)N2CCC2)c(=O)n3CF)c1F [Example 595, 1-[2-(Azetidin-1-yl)-2-oxo-ethyl]-6-(2,4-difluoro-3-methyl-phenyl)-3-(fluoromethyl)imidazo[4,5-b]pyridin-2-one]	0.974 µM
CN(C)C(=O)Cn1c(=O)n(CF)c2ncc(-c3ccc(C(F)(F)F)s3)cc21 [Example 596, 2-[3-(Fluoromethyl)-2-oxo-6-[5-(trifluoromethyl)-2-thienyl]imidazo[4,5-b]pyridin-1-yl]-N,N-dimethyl-acetamide]	0.066 µM
O=C(Cn1c(=O)n(CF)c2ncc(-c3ccc(C(F)(F)F)s3)cc21)N1CC(F)C1 [Example 597, 1-[2-(3-Fluoroazetidin-1-yl)-2-oxo-ethyl]-3-(fluoromethyl)-6-[5-(trifluoromethyl)-2-thienyl]imidazo[4,5-b]pyridin-2-one]	0.063 µM
O=C(Cn1c(=O)n(CF)c2ncc(-c3ccc(C(F)(F)F)s3)cc21)N1CCCC1 [Example 598, 3-(Fluoromethyl)-1-(2-oxo-2-pyrrolidin-1-yl-ethyl)-6-[5-(trifluoromethyl)-2-thienyl]imidazo[4,5-b]pyridin-2-one]	0.173 µM
Cc1c(F)ccc(-c2cnc3c(c2)n(CC(=O)N(C)C)c(=O)n3CF)c1F [Example 599, 2-[6-(2,4-Difluoro-3-methyl-phenyl)-3-(fluoromethyl)-2-oxo-imidazo[4,5-b]pyridin-1-yl]-N,N-dimethyl-acetamide]	0.025 µM
Cc1c(F)ccc(-c2cnc3c(c2)n(CC(=O)N2CC(F)C2)c(=O)n3CF)c1F [Example 600, 6-(2,4-Difluoro-3-methyl-phenyl)-1-[2-(3-fluoroazetidin-1-yl)-2-oxo-ethyl]-3-(fluoromethyl)imidazo[4,5-b]pyridin-2-one]	0.017 µM
COc1cccc(-c2cnc3[nH]c(=O)n(CC(=O)c4cccs4)c3c2)c1 [Example 602, 6-(3-Methoxyphenyl)-1-[2-oxo-2-(2-thienyl)ethyl]-3H-imidazo[4,5-b]pyridin-2-one]	0.204 µM
CCOc1ccccc1-c1cnc2[nH]c(=O)n(Cc3cccc(OC)c3)c2c1 [Example 605, 6-(2-Ethoxyphenyl)-1-[(3-methoxyphenyl)methyl]-3H-imidazo[4,5-b]pyridin-2-one]	2.09 µM
CCOc1ccccc1-c1cnc2[nH]c(=O)n(Cc3ccc(F)cc3)c2c1 [Example 606, 6-(2-Ethoxyphenyl)-1-[(4-fluorophenyl)methyl]-3H-imidazo[4,5-b]pyridin-2-one]	2.18 µM
CCOc1ccc(F)cc1-c1cnc2[nH]c(=O)n(CC(=O)NC3CC3)c2c1 [Example 607, N-Cyclopropyl-2-[6-(2-ethoxy-5-fluoro-phenyl)-2-oxo-3H-imidazo[4,5-b]pyridin-1-yl]acetamide]	0.336 µM
COCCNC(=O)Cn1c(=O)[nH]c2ncc(-c3cc(F)cc(F)c3)cc21 [Example 610, 2-[6-(3,5-Difluorophenyl)-2-oxo-3H-imidazo[4,5-b]pyridin-1-yl]-N-(2-methoxyethyl)acetamide]	1.79 µM
CC(C)(C)C(=O)Cn1c(=O)[nH]c2ncc(-c3cccc(C(F)(F)F)c3)cc21 [Example 611, 1-(3,3-Dimethyl-2-oxo-butyl)-6-[3-(trifluoromethyl)phenyl]-3H-imidazo[4,5-b]pyridin-2-one]	0.204 µM
COCCNC(=O)Cn1c(=O)[nH]c2ncc(-c3ccc(F)c(Cl)c3)cc21 [Example 612, 2-[6-(3-Chloro-4-fluoro-phenyl)-2-oxo-3H-imidazo[4,5-b]pyridin-1-yl]-N-(2-methoxyethyl)acetamide]	0.116 µM

molecular target: T2, human GluN1/GluN2B NMDA receptors (Homo sapiens, UniProt Q05586+Q13224); assay: as above; details: standard assay buffer (0.5 mM MgCl2 dye loading; 137 mM NaCl, 4 mM KCl assay buffer), human GluN1/GluN2B cells, read-out: NR2B IC50 (μM) standard assay
T2 construct: expressed in transfected cells
T2 sequence (Q13224 27-1484, other chains not shown): as above

Structure (SMILES)	IC50
O=c1[nH]c2ncc(-c3cccc(C(F)(F)F)c3)cc2n1CC1CCCO1 (racemic) [Example 24, (R/S)-1-(Tetrahydrofuran-2-ylmethyl)-6-[3-(trifluoromethyl)phenyl]-3H-imidazo[4,5-b]pyridin-2-one]	0.127 µM
